Calls of active or inactive are those of the source.
How the values were obtained:
[1] = NIH-3T3 fibroblast cytotoxicity, dose response, cytotoxicity control, cell-based, fluorescence, Alamar Blue, secondary assay (AID 2327); format: functional;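 also: NIH-3T3 mouse fibroblasts cultured with fluconazole at 8 µg/mL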
[2] = fluconazole-exposed Candida albicans growth modulators – fluorescence, retest, confirmation (AID 2467); format: functional, cell-based
[3] = biological target: Serine/threonine-protein phosphatase (Candida dubliniensis (strain CD36 / CBS 7987 / NCPF 3949 / NRRLY-17841) (Yeast), UniProt B9W6M3); assay: blockers of CaCl2-induced CDRE-lacZ signaling – S. cerevisiae, luminescence, secondary, dose response (AID 2388); format: functional, cell-based;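 also: yeast reporter cells carrying a calcineurin-responsive lacZ construct stimulated with calcium chloride; luminescent beta-galactosidase reporter signal in whole cells rather than isolated phosphatase activity; potency for inhibition where a drop in reporter signal means calcineurin blockade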
[4] = biological target: ATP-dependent molecular chaperone HSP82 (Candida albicans (strain WO-1) (Yeast), UniProt C4YTQ8); assay: steroid-induced GRE reporter decrease in yeast – S. cerevisiae, luminescence, Hsp90 inhibitor project, dose response (AID 2400); format: functional, cell-based;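 also: beta-galactosidase luminescence from glucocorticoid response element reporter as proxy for Hsp90 function; inhibitor potency where signal loss means Hsp90 inhibition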
[5] = tested on: Vero; assay: viability of Vero cells under compound – cytotoxicity control for flavivirus capping enzyme inhibitors (AID 588742); format: functional; conditions: Chlorocebus sabaeus
[6] = biological target: Genome polyprotein (dengue virus type 2, UniProt P29990); assay: flavivirus cap methylation enzyme inhibition – biochemical, confirmation dose response, primary screen (AID 588689); format: functional
[7] = tested on: Jurkat; assay: SAR Analysis of small molecule inhibitors of […] specific antigen receptor-induced NF-kB activation in a Jurkat cell line using a luminescence assay - Set 3. [Related pubchem assays (depositor defined):AID435022, AID435025, AID465]; format: functional, cell-based; conditions: Homo sapiens
[8] = tested on: HEK293; assay: HEK293T cell viability loss, resazurin readout – resazurin fluorescence, cytotoxicity control for NF-kB activator project, SAR follow-up (AID 493251); format: functional, cell-based; conditions: Homo sapiens
[9] = tested on: HEK293; assay: SAR Analysis of small molecule inhibitors of B-cell specific antigen receptor-induced NF-kB activation in a HEK-293T cell line using a luminescence assay - Set 2. [Related pubchem assays (depositor defined):AID435022, AID435025, AID489021]; format: functional, cell-based; conditions: Homo sapiens
[10] = biological target: Phospholipase D1 (Homo sapiens, UniProt Q13393); assay: cellular phospholipase D1 inhibition IC50 – cell-based, dose response (AID 602151); format: functional;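 also: cellular PLD1 assay in Calu-1 cells stimulated with PMA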
[11] = biological target: Phospholipase D2 (Homo sapiens, UniProt O14939); assay: cellular phospholipase D2 inhibition IC50 – cell-based, dose response (AID 602147); format: functional;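 also: cellular assay in HEK293 cells overexpressing GFP-tagged PLD2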
Chain of Phospholipase D2 (O14939 whole entry): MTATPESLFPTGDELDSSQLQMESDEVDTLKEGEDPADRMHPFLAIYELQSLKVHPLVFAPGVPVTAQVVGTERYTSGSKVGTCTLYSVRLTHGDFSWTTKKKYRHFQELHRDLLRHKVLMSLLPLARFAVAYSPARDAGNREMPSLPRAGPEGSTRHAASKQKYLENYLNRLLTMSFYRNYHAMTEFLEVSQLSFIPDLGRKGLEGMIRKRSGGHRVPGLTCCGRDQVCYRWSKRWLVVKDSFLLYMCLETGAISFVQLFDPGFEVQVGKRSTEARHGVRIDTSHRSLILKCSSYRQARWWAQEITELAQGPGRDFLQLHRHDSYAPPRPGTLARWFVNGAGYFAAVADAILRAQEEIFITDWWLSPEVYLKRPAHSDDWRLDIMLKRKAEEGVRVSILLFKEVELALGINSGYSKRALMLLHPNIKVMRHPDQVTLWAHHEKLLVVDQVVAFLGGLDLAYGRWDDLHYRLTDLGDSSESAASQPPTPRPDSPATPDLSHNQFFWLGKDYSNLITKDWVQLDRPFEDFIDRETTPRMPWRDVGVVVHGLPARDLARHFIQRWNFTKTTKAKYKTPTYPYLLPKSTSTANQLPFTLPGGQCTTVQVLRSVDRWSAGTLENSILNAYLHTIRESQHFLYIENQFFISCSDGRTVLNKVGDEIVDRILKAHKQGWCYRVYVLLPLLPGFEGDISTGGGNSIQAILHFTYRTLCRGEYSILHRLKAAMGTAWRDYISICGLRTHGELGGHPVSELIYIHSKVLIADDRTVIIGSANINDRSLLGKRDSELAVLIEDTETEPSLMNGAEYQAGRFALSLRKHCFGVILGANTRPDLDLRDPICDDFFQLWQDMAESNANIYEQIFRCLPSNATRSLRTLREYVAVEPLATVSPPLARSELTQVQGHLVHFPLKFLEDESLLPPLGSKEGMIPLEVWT

Chain of Genome polyprotein (P29990 2492-3391 limits assumed): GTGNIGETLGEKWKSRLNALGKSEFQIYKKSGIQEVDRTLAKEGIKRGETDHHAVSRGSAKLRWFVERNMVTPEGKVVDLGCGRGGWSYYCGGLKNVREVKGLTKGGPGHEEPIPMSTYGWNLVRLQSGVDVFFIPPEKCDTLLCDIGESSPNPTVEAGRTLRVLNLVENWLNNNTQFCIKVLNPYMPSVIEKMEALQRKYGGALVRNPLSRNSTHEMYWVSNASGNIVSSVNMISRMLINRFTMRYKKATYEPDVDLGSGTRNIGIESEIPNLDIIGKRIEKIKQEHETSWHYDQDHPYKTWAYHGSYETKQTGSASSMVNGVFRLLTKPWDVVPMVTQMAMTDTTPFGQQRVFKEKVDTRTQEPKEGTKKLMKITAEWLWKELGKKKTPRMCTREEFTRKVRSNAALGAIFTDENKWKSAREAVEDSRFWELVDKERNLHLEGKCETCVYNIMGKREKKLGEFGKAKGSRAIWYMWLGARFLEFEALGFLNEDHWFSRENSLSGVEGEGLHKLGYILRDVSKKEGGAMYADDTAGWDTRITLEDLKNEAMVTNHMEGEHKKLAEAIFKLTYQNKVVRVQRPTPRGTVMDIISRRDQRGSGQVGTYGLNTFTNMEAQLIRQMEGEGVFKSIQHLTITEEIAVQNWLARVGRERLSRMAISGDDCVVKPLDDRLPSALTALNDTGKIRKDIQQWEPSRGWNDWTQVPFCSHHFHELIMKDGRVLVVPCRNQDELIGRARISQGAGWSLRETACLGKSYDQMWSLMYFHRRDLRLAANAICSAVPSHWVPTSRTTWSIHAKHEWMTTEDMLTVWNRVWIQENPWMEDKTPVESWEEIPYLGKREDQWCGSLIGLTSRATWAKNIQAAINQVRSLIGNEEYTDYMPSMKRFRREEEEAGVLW
Chain of ATP-dependent molecular chaperone HSP82 (C4YTQ8 whole entry): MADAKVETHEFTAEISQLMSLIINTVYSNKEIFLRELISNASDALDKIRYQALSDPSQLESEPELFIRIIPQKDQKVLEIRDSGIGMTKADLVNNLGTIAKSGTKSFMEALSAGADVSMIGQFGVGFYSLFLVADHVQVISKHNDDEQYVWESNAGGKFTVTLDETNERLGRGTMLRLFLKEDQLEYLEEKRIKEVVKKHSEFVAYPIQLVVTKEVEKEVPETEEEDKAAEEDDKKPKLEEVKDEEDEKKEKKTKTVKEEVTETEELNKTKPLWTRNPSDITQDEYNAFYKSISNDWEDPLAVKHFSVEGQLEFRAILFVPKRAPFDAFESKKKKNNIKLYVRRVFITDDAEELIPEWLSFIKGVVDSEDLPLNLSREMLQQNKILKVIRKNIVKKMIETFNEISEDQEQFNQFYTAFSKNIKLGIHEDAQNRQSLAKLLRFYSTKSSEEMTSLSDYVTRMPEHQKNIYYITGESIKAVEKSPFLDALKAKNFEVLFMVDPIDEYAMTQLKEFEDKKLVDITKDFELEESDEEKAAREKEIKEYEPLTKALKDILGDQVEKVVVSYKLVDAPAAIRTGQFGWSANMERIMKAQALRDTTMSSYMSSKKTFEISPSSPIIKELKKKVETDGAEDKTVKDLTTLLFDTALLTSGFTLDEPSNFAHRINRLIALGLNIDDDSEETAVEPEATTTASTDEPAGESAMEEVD
Chain of Serine/threonine-protein phosphatase (B9W6M3 whole entry): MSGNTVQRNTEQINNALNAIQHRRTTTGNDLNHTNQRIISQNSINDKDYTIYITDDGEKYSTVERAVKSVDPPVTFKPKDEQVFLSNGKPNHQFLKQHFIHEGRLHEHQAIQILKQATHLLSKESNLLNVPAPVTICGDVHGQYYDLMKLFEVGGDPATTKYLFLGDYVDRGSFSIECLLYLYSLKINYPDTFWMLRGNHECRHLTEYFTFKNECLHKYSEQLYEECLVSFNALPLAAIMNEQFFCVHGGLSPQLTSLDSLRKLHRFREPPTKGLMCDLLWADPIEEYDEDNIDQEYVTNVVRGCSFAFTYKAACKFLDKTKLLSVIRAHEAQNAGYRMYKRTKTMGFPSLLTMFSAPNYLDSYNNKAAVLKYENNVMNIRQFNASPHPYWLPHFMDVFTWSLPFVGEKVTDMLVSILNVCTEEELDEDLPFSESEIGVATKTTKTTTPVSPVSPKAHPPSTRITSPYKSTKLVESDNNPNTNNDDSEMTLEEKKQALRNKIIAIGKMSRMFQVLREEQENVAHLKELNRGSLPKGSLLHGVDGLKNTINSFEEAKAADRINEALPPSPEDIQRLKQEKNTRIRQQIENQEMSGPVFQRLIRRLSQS
Chain of Phospholipase D1 (Q13393 whole entry): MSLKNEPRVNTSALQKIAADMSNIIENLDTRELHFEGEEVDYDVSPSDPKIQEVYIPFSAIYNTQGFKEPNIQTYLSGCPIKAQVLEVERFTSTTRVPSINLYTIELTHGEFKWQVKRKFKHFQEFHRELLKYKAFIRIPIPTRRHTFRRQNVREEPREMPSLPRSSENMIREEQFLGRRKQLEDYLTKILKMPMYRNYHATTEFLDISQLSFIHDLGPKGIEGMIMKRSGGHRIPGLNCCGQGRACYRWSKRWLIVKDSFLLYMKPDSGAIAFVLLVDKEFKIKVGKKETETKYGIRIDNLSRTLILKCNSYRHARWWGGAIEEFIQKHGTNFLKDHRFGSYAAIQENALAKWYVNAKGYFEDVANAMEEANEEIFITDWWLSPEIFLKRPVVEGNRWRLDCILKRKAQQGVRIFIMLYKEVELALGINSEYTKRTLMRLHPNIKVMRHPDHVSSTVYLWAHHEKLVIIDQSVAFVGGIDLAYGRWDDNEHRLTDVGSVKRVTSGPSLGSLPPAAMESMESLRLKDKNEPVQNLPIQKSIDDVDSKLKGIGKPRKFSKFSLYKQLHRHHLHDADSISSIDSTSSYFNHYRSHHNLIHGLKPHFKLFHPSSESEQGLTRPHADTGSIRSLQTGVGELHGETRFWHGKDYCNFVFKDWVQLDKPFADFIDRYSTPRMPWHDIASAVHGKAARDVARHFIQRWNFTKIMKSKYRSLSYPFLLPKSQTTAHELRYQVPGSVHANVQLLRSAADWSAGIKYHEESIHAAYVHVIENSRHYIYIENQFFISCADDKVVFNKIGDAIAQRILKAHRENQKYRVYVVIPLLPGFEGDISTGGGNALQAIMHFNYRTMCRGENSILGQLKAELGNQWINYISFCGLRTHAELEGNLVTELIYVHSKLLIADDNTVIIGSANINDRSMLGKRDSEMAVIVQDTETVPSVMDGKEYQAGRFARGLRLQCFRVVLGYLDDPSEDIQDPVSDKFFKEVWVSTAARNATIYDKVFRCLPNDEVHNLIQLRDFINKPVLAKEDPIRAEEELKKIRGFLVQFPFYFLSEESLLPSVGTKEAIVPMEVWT

## CCOc1ccc(NC(=O)c2cn(-c3ccc(OCC)cc3)c(=O)c3cc(OC)c(OC)cc23)cc1
[1]
  EC50: > 160 µM (inconclusive)
[2]
  EC50: 0.789 µM (active)
[3]
  EC50: > 180 µM (inactive)
[4]
  EC50: > 160 µM (inactive)

## CCOC(=O)c1c(NC(=O)/C=C/C(=O)O)sc(C)c1-c1ccc(Cl)cc1
[5]
  CC50: > 40 µM (active)
[6]
  IC50: 43 µM (active)

## CCOc1ccc(-c2nc(CSCC(=O)NCc3cccnc3)c(C)o2)cc1
[7]
  IC50: 72.6 µM (inactive)
[8]
  IC50: 65 µM (inactive)
[9]
  IC50: 24.2 µM (inactive)

## CC(C)[C@@H](CN1CCC2(CC1)C(=O)NCN2c1ccccc1)NC(=O)c1cnc2ccccc2c1
[10]
  IC50: 0.09 µM (active)
[11]
  IC50: 0.25 µM (active)
